From PubChem BioAssay AID256 (DTP/NCI, 2004) come the findings set out here.

In this experiment the test system is CD2F1 mice, L1210 leukemia ip, survival T/C. As to the kind of experiment: NCI In Vivo Anticancer Drug Screen. Data for tumor model L1210 Leukemia (intraperitoneal) in CD2F1 (CDF1) mice. The settings on record: higher = longer survival. The method, boiled down:
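Antitumor effect is scored in animals hosting a serially transplanted tumor. Values compare compound-dosed animals against vehicle-only controls as a simple quotient.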

Values joined by “and” are separate entries in the source; they are usually repeats but may differ in a detail not shown here. Equal entries are not always repeated. Toxic doses and inconclusive results are not listed.

For the compound `OCCCC(Sc1ccccc1)c1ccccc1` (centres undefined), the T/C by setting is: (endpoint: mean survival time, dose: 75.0 mg/kg/injection, schedule: Q04DX003 (ip), vehicle: saline) 91 % of control; (endpoint: mean survival time, dose: 150.0 mg/kg/injection, schedule: Q04DX003 (ip), vehicle: saline) 101 % of control; (endpoint: mean survival time, dose: 300.0 mg/kg/injection, schedule: Q04DX003 (ip), vehicle: saline) 91 % of control.
As to `C[n+]1ccccc1SC12CC3CC(CC(C3)C1)C2`, the T/C is 98 % of control (endpoint: mean survival time, dose: 2.5 mg/kg/injection, schedule: Q01DX009 (ip), vehicle: Klucel (hydroxypropylcellulose) (HPC)); 98 % of control (endpoint: mean survival time, dose: 5.0 mg/kg/injection, schedule: Q01DX009 (ip), vehicle: Klucel (hydroxypropylcellulose) (HPC)); 103 % of control (endpoint: mean survival time, dose: 10.0 mg/kg/injection, schedule: Q01DX009 (ip), vehicle: Klucel (hydroxypropylcellulose) (HPC)).
In the case of `Cc1cc(C)c(C(=O)O)c(C(=O)O)c1`, the T/C by setting is: (endpoint: mean survival time, dose: 100.0 mg/kg/injection, schedule: Q01DX001 (ip), vehicle: Klucel (hydroxypropylcellulose) (HPC)) 106 % of control; (endpoint: mean survival time, dose: 200.0 mg/kg/injection, schedule: Q01DX001 (ip), vehicle: Klucel (hydroxypropylcellulose) (HPC)) 95 % of control; (endpoint: mean survival time, dose: 400.0 mg/kg/injection, schedule: Q01DX001 (ip), vehicle: Klucel (hydroxypropylcellulose) (HPC)) 106 % of control.
Turning to `CCCCCCCC(=O)Nc1ncnc2c1ncn2C1OC(COC(C)=O)C(OC(C)=O)C1OC(C)=O` (centres undefined), the T/C runs as follows: (endpoint: mean survival time, dose: 12.5 mg/kg/injection, schedule: Q01DX005 (ip), vehicle: distilled water + Tween-80) 98 % of control; (endpoint: mean survival time, dose: 25.0 mg/kg/injection, schedule: Q01DX005 (ip), vehicle: distilled water + Tween-80) 91 % of control; (endpoint: mean survival time, dose: 50.0 mg/kg/injection, schedule: Q01DX005 (ip), vehicle: distilled water + Tween-80) 98 % of control; (endpoint: mean survival time, dose: 100.0 mg/kg/injection, schedule: Q01DX005 (ip), vehicle: distilled water + Tween-80) 94 % of control.
`CC1=CC(O)(c2ccccc2)C(C)=CC1=O` (centres undefined): the T/C is, setting by setting: (endpoint: mean survival time, dose: 100.0 mg/kg/injection, schedule: Q01DX001 (ip), vehicle: saline with Tween-80) 97 % of control; (endpoint: mean survival time, dose: 200.0 mg/kg/injection, schedule: Q01DX001 (ip), vehicle: saline with Tween-80) 97 % of control; (endpoint: mean survival time, dose: 400.0 mg/kg/injection, schedule: Q01DX001 (ip), vehicle: saline with Tween-80) 93 % of control.
Take `CC[C@@]1(OC(=O)CCC(=O)O)C(=O)OCc2c1cc1n(c2=O)Cc2cc3ccccc3nc2-1`: the T/C reads like this: (endpoint: median survival time, dose: 5.86 mg/kg/injection, schedule: Q04DX002 (ip), vehicle: water) 118 % of control; (endpoint: median survival time, dose: 8.79 mg/kg/injection, schedule: Q04HX004 (iv), vehicle: water) 154 % of control; (endpoint: median survival time, dose: 11.73 mg/kg/injection, schedule: Q04DX002 (ip), vehicle: water) 120 % of control; (endpoint: median survival time, dose: 17.59 mg/kg/injection, schedule: Q04HX004 (iv), vehicle: water) 167 % of control and 180 % of control; (endpoint: median survival time, dose: 35.18 mg/kg/injection, schedule: Q04HX004 (iv), vehicle: water) 197 % of control and 228 % of control; (endpoint: median survival time, dose: 46.9 mg/kg/injection, schedule: Q04DX002 (ip), vehicle: water) 192 % of control and 200 % of control. The T/C (endpoint: median survival time, dose: 93.8 mg/kg/injection, schedule: Q04DX002 (ip), vehicle: water) is 231 % of control.
As for `Cc1c2ccncc2c(C)c2c1oc1ccccc12`, the T/C runs as follows: (endpoint: mean survival time, dose: 100.0 mg/kg/injection, schedule: Q01DX001 (ip), vehicle: other) 108 % of control; (endpoint: mean survival time, dose: 200.0 mg/kg/injection, schedule: Q01DX001 (ip), vehicle: other) 98 % of control; (endpoint: mean survival time, dose: 400.0 mg/kg/injection, schedule: Q01DX001 (ip), vehicle: other) 95 % of control.
Take `Cn1c(=S)sc2nc3ccccc3n2c1=S`: the T/C reads like this: (endpoint: median survival time, dose: 15.0 mg/kg/injection, schedule: Q01DX005 (ip), vehicle: saline with Tween-80) 103 % of control; (endpoint: median survival time, dose: 30.0 mg/kg/injection, schedule: Q01DX005 (ip), vehicle: saline with Tween-80) 107 % of control; (endpoint: median survival time, dose: 60.0 mg/kg/injection, schedule: Q01DX005 (ip), vehicle: saline with Tween-80) 111 % of control; (endpoint: median survival time, dose: 120.0 mg/kg/injection, schedule: Q01DX005 (ip), vehicle: saline with Tween-80) 107 % of control; (endpoint: median survival time, dose: 240.0 mg/kg/injection, schedule: Q01DX005 (ip), vehicle: saline with Tween-80) 107 % of control.
For the compound `CCSC(CC(O)C(O)C(O)CO)n1cnc2c(Cl)ncnc21` (centres undefined), the T/C was 100 % of control (endpoint: mean survival time, dose: 12.5 mg/kg/injection, schedule: Q01DX005 (ip), vehicle: water); 105 % of control (endpoint: mean survival time, dose: 25.0 mg/kg/injection, schedule: Q01DX005 (ip), vehicle: water); 102 % of control (endpoint: mean survival time, dose: 50.0 mg/kg/injection, schedule: Q01DX005 (ip), vehicle: water); 107 % of control (endpoint: mean survival time, dose: 100.0 mg/kg/injection, schedule: Q01DX005 (ip), vehicle: water); 104 % of control (endpoint: mean survival time, dose: 200.0 mg/kg/injection, schedule: Q01DX005 (ip), vehicle: water).
On to `CCC(CO)[N-]CC[N-]C(CC)CO.[Cl][Pt+2][Cl]` (centres undefined), for which the T/C was 101 % of control (endpoint: median survival time, dose: 6.25 mg/kg/injection, schedule: Q04DX003 (ip), vehicle: saline); 107 % of control (endpoint: median survival time, dose: 12.5 mg/kg/injection, schedule: Q04DX003 (ip), vehicle: saline); 109 % of control (endpoint: median survival time, dose: 25.0 mg/kg/injection, schedule: Q04DX003 (ip), vehicle: saline); 121 % of control (endpoint: median survival time, dose: 50.0 mg/kg/injection, schedule: Q04DX003 (ip), vehicle: saline).
Take `C1=[N+](c2ccccc2)CCN1c1ccccc1`: the T/C is, setting by setting: (endpoint: mean survival time, dose: 75.0 mg/kg/injection, schedule: Q01DX001 (ip), vehicle: saline) 95 % of control; (endpoint: mean survival time, dose: 150.0 mg/kg/injection, schedule: Q01DX001 (ip), vehicle: saline) 98 % of control.
With `CCCCNc1c(C(=O)N2CCCCC2)cnc2c1cnn2CC`, the T/C (endpoint: mean survival time, dose: 100.0 mg/kg/injection, schedule: Q04DX003 (ip), vehicle: saline) is 97 % of control and the T/C (endpoint: mean survival time, dose: 200.0 mg/kg/injection, schedule: Q04DX003 (ip), vehicle: saline) was 101 % of control.
